The record followed here is patent publication US9340590B2 (priority 2011, dated 2016).

Molecules are shown by their SMILES. Like-named read-outs stand apart in the source and are kept apart here. Positions of bridges follow the written chain, without caps; N, C: chain ends. Non-standard residues stand in square brackets, D forms with d. Residues, ends and D or L forms follow the SMILES beside them. Bip = N[C@@H](Cc1ccc(-c2ccccc2)cc1)C(=O)O

One test has as its target hNav1.5 (Homo sapiens, UniProt Q14524). The experiment in a line: cell-based.
Another test deals with hNav1.7 (Homo sapiens, UniProt Q15858). The experiment in a line: cell-based. It is filed as cell-based. The note with it: read-out: IWQ Use Nav1.7.
Chain of hNav1.7 (Q15858 whole entry, looked up): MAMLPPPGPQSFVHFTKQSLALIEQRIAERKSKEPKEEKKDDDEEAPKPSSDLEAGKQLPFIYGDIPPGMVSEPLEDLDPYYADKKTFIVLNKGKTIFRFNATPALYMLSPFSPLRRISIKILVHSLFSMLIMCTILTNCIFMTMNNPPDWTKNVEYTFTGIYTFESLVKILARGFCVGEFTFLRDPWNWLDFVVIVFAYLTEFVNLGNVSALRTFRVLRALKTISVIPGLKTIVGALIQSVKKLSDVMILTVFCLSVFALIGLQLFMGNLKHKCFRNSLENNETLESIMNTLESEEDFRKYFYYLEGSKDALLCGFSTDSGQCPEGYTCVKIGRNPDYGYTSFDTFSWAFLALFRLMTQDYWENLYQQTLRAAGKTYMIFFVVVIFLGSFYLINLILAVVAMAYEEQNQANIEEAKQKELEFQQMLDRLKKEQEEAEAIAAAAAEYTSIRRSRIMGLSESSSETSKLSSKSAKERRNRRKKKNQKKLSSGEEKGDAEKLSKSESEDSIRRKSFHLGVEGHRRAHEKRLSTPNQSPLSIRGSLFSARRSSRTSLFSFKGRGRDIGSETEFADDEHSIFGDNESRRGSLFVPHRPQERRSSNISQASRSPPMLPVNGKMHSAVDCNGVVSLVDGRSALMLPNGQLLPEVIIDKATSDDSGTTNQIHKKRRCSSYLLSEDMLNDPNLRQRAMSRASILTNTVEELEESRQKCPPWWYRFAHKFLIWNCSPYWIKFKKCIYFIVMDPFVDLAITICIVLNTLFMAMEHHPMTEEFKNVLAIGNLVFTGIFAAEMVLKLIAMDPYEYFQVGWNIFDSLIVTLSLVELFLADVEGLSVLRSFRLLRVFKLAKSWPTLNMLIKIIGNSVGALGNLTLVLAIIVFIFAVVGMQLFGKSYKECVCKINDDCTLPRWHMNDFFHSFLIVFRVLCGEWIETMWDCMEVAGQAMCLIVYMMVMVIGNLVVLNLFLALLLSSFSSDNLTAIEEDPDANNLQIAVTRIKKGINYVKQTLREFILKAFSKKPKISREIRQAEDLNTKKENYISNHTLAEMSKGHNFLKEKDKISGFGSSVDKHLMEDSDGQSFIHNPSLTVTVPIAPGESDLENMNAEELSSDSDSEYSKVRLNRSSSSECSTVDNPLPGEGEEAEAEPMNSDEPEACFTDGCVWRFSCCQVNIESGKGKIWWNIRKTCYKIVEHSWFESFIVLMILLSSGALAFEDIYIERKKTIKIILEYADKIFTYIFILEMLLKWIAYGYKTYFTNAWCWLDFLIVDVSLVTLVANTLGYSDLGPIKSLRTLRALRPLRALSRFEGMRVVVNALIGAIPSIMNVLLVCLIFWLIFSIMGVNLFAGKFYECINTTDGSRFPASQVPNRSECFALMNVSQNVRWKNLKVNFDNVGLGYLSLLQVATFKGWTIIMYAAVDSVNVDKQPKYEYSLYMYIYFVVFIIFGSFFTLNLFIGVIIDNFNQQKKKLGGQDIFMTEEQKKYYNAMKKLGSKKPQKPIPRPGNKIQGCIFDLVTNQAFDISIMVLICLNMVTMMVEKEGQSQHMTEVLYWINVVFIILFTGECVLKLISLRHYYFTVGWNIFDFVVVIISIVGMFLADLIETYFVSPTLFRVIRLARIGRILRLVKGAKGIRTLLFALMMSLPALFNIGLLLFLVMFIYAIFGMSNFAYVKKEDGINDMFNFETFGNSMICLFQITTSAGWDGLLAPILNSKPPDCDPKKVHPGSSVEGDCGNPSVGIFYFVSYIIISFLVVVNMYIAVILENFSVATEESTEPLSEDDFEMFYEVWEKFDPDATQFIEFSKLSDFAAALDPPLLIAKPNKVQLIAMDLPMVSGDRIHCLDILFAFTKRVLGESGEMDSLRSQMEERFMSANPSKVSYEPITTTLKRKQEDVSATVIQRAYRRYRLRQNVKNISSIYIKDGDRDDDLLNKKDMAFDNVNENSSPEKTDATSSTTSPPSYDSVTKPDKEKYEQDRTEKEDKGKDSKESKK
Where [1] appears, read: IonWorks Quattro, clamped to −110 mV, depolarized to −10 mV, 5 min after compound, n=2.

Chain of hNav1.5 (Q14524 whole entry, looked up): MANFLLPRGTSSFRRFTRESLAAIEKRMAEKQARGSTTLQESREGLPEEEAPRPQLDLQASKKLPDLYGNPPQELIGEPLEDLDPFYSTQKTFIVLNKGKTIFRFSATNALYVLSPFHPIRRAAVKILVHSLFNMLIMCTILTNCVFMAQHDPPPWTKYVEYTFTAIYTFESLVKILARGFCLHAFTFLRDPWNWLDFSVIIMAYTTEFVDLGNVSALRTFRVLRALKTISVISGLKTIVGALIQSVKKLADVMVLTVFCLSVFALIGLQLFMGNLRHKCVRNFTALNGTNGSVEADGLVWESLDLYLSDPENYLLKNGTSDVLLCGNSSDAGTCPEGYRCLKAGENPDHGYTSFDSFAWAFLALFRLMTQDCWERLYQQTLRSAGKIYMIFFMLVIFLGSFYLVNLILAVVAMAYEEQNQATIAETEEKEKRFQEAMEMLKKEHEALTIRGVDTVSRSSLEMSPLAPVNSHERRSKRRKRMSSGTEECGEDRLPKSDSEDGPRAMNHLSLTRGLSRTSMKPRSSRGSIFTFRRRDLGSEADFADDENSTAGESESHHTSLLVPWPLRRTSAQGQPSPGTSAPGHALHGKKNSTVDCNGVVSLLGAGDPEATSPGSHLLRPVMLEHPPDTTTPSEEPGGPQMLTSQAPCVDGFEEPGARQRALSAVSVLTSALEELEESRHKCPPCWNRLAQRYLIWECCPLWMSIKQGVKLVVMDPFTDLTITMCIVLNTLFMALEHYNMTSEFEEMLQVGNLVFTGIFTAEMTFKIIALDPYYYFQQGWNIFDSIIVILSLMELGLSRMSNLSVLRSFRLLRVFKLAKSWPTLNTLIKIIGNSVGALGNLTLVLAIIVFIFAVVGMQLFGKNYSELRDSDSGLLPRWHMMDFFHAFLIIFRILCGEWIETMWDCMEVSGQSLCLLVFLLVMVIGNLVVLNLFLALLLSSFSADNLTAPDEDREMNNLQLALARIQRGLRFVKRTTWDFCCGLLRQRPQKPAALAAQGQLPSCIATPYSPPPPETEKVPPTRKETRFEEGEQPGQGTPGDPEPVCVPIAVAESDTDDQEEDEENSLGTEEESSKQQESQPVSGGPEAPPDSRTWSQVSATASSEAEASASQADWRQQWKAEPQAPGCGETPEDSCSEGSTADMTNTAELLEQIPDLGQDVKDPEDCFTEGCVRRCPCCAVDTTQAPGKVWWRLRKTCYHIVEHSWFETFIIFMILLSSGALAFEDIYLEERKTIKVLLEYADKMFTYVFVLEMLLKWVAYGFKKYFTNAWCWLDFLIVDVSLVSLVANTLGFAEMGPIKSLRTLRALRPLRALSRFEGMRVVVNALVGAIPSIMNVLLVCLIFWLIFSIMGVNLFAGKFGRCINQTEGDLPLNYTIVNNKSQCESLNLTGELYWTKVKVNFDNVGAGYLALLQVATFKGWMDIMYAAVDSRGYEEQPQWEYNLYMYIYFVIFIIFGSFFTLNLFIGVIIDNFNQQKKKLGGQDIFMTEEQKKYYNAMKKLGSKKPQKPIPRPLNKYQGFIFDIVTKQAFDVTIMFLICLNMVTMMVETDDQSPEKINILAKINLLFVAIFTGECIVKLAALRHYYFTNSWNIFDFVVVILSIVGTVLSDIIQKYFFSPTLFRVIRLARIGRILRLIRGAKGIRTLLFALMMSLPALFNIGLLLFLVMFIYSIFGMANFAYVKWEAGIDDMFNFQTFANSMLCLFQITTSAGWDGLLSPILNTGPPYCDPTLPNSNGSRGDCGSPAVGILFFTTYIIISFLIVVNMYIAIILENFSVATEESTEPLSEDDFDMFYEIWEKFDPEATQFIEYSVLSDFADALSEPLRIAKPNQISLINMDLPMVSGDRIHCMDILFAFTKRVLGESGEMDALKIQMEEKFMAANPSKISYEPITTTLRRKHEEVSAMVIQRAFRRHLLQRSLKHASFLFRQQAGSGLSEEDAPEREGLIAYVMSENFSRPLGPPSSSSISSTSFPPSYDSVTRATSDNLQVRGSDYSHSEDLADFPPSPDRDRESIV

As to `CC[C@H](C)[C@@H]1NC(=O)[C@@H]2CSSC[C@@H]3NC(=O)[C@H](C(C)C)NC(=O)[C@H](CC(C)C)NC(=O)[C@H](CC(N)=O)NC(=O)[C@@H]4CCCN4C(=O)[C@H](CCCNC(=N)N)NC(=O)[C@H](CSSC[C@H](NC(=O)[C@@H](N)CC(=O)O)C(=O)N[C@@H](CC(C)C)C(=O)NCC(=O)N[C@@H](Cc4ccccc4)C(=O)N[C@@H](Cc4ccc(I)cc4)C(=O)N[C@@H](CCCNC(=N)N)C(=O)N[C@@H](CCCCN)C(=O)N2)NC(=O)[C@H](CSSC[C@@H](C(=O)N[C@@H](CCCCN)C(=O)N[C@@H](Cc2ccc(O)cc2)C(=O)N[C@H](C(=O)N[C@@H](Cc2ccccc2)C(N)=O)C(C)C)NC(=O)[C@H](Cc2c[nH]c4ccccc24)NC(=O)[C@H](CCCCN)NC(=O)[C@H](Cc2c[nH]cn2)NC(=O)[C@H]([C@@H](C)O)NC(=O)[C@H](CCCNC(=N)N)NC(=O)[C@H](CO)NC3=O)NC(=O)[C@H](CCCCN)NC(=O)[C@H](CC(=O)O)NC(=O)[C@H](CC(N)=O)NC(=O)[C@H](CC(=O)O)NC(=O)[C@@H]2CCCN2C1=O` [SEQ ID NO: 291], the IC50 at hNav1.5 (IonWorks Quattro, clamped to −110 mV, depolarized to −10 mV, 5 min after compound, n=2, read-out: IWQ Use Nav1.5) was 0.95 µM; on hNav1.7 (setting [1]), 0.02 µM.

For the compound `CSCC[C@@H]1NC(=O)[C@H](Cc2ccccc2)NC(=O)CNC(=O)[C@H](CC(C)C)NC(=O)[C@@H](NC(=O)[C@@H](N)CC(=O)O)CSSC[C@@H]2NC(=O)[C@@H]3CSSC[C@@H](C(=O)N[C@@H](CCCCN)C(=O)N[C@@H](Cc4ccc(O)cc4)C(=O)N[C@H](C(=O)N[C@@H](Cc4ccccc4)C(N)=O)C(C)C)NC(=O)[C@H](Cc4c[nH]c5ccccc45)NC(=O)[C@H](CCCCN)NC(=O)[C@H](Cc4c[nH]cn4)NC(=O)[C@H]([C@@H](C)O)NC(=O)[C@H](CCCNC(=N)N)NC(=O)[C@H](CO)NC(=O)[C@H](CSSC[C@H](NC(=O)[C@H](CCCCN)NC(=O)[C@H](CCCNC(=N)N)NC1=O)C(=O)N[C@@H](CCSC)C(=O)N1CCC[C@H]1C(=O)N[C@@H](CC(=O)O)C(=O)N[C@@H](CC(N)=O)C(=O)N[C@@H](CC(=O)O)C(=O)N[C@@H](CCCCN)C(=O)N3)NC(=O)[C@H](C(C)C)NC(=O)[C@H](CC(C)C)NC(=O)[C@H](CC(N)=O)NC(=O)[C@@H]1CCCN1C(=O)[C@H](CCCNC(=N)N)NC2=O` [compound 307] (H-DCLGFMRKCMPDNDKCCRPNLVCSRTHKWCKYVF-NH2; disulfide 2-17, 9-23, 16-30), the IC50 on hNav1.5 (IonWorks Quattro, Use, read-out: IWQ Use Nav1.5) came to 3.38 µM; at hNav1.7, 0.09 µM.

Consider `CC[C@H](C)[C@@H]1NC(=O)[C@@H]2CSSC[C@@H]3NC(=O)[C@H](C(C)C)NC(=O)[C@H](CC(C)C)NC(=O)[C@H](CC(N)=O)NC(=O)[C@@H]4CCCN4C(=O)[C@H](CCCNC(=N)N)NC(=O)[C@H](CSSC[C@H](NC(=O)[C@@H](N)CC(=O)O)C(=O)N[C@@H](CC(C)C)C(=O)NCC(=O)N[C@@H](Cc4ccccc4)C(=O)N[C@@H](CCSC)C(=O)N[C@@H](CCCNC(=N)N)C(=O)N[C@@H](CCCCN)C(=O)N2)NC(=O)[C@H](CSSC[C@@H](C(=O)N[C@@H](CCCCN)C(=O)N[C@@H](Cc2ccc(O)cc2)C(=O)N[C@H](C(=O)N[C@@H](Cc2ccccc2)C(N)=O)C(C)C)NC(=O)[C@H](Cc2c[nH]c4ccccc24)NC(=O)[C@H](CC(=O)O)NC(=O)[C@H](Cc2c[nH]cn2)NC(=O)[C@H]([C@@H](C)O)NC(=O)[C@H](CCCNC(=N)N)NC(=O)[C@H](CO)NC3=O)NC(=O)[C@H](CCCCN)NC(=O)[C@H](CC(=O)O)NC(=O)[C@H](CC(N)=O)NC(=O)[C@H](CC(=O)O)NC(=O)[C@@H]2CCCN2C1=O` [SEQ ID NO: 750, [Asp28]GpTx-1] (H-DCLGFMRKCIPDNDKCCRPNLVCSRTHDWCKYVF-NH2; disulfide 2-17, 9-23, 16-30), for which the IC50 at hNav1.5 (read-out: IWQ Use Nav1.5) was 37.9 µM; at hNav1.7 (IonWorks Quattro, use-dependent block, hNav1.7), 0.73 µM.

Take `CC[C@H](C)[C@@H]1NC(=O)[C@@H]2CSSC[C@@H]3NC(=O)[C@H](C(C)C)NC(=O)[C@H](CC(C)C)NC(=O)[C@H](CC(N)=O)NC(=O)[C@@H]4CCCN4C(=O)[C@H](CCCNC(=N)N)NC(=O)[C@H](CSSC[C@H](NC(=O)[C@@H](N)CC(=O)O)C(=O)N[C@@H](CC(C)C)C(=O)NCC(=O)N[C@@H](Cc4ccccc4)C(=O)N[C@@H](CCSC)C(=O)N[C@@H](CCCNC(=N)N)C(=O)N[C@@H](CCCCN)C(=O)N2)NC(=O)[C@H](CSSC[C@@H](C(=O)N[C@@H](CCCCN)C(=O)N[C@@H](Cc2ccc(O)cc2)C(=O)N[C@H](C(=O)N[C@@H](Cc2ccccc2)C(N)=O)C(C)C)NC(=O)[C@H](Cc2ccccc2)NC(=O)[C@H](CCCCN)NC(=O)[C@H](Cc2c[nH]cn2)NC(=O)[C@H]([C@@H](C)O)NC(=O)[C@H](CCCNC(=N)N)NC(=O)[C@H](CO)NC3=O)NC(=O)[C@H](CCCCN)NC(=O)[C@H](CC(=O)O)NC(=O)[C@H](CC(N)=O)NC(=O)[C@H](CC(=O)O)NC(=O)[C@@H]2CCCN2C1=O` [compound 112] (H-DCLGFMRKCIPDNDKCCRPNLVCSRTHKFCKYVF-NH2; disulfide 2-17, 9-23, 16-30): the IC50 at hNav1.5 (Table 24, IonWorks Quattro, use, […], read-out: IWQ Use Nav1.5) was 6.21 µM; on hNav1.7 (Table 24, IonWorks Quattro, use, […]), 2.18 µM.

As for `CC[C@H](C)[C@@H]1NC(=O)[C@@H]2CSSC[C@@H]3NC(=O)[C@H](C(C)C)NC(=O)[C@H](CC(C)C)NC(=O)[C@H](CC(N)=O)NC(=O)[C@@H]4CCCN4C(=O)[C@H](CCCNC(=N)N)NC(=O)[C@H](CSSC[C@H](NC(=O)[C@@H](N)CC(=O)O)C(=O)N[C@@H](CC(C)C)C(=O)NCC(=O)N[C@@H](CCC(=O)O)C(=O)N[C@@H](CCSC)C(=O)N[C@@H](CCCNC(=N)N)C(=O)N[C@@H](CCCCN)C(=O)N2)NC(=O)[C@H](CSSC[C@@H](C(=O)N[C@@H](CCCCN)C(=O)N[C@@H](Cc2ccc(O)cc2)C(=O)N[C@H](C(=O)N[C@@H](Cc2ccccc2)C(N)=O)C(C)C)NC(=O)[C@H](Cc2c[nH]c4ccccc24)NC(=O)[C@H](CCCCN)NC(=O)[C@H](Cc2cnc[nH]2)NC(=O)[C@H]([C@@H](C)O)NC(=O)[C@H](CCCNC(=N)N)NC(=O)[C@H](CO)NC3=O)NC(=O)[C@H](CCCCN)NC(=O)[C@H](CC(=O)O)NC(=O)[C@H](CC(N)=O)NC(=O)[C@H](CC(=O)O)NC(=O)[C@@H]2CCCN2C1=O` [SEQ ID NO: 143] (H-DCLGEMRKCIPDNDKCCRPNLVCSRTHKWCKYVF-NH2; disulfide 2-17, 9-23, 16-30), the IC50 at hNav1.5 (IWQ Use Nav1.5) is 10 µM; at hNav1.7 (setting [1]) it was 17.7 µM.

Take `CC[C@H](C)[C@@H]1NC(=O)[C@@H]2CSSC[C@@H]3NC(=O)[C@H](C(C)C)NC(=O)[C@H](CC(C)C)NC(=O)[C@H](CC(N)=O)NC(=O)[C@@H]4CCCN4C(=O)[C@H](CCCNC(=N)N)NC(=O)[C@H](CSSC[C@H](NC(=O)[C@@H](N)CC(=O)O)C(=O)N[C@@H](CC(C)C)C(=O)NCC(=O)N[C@@H](Cc4ccccc4)C(=O)N[C@@H](CCSC)C(=O)N[C@@H](CCCNC(=N)N)C(=O)N[C@@H](CCCCN)C(=O)N2)NC(=O)[C@H](CSSC[C@@H](C(=O)N[C@@H](CCCCN)C(=O)N[C@@H](Cc2ccc(-c4ccccc4)cc2)C(=O)N[C@H](C(=O)N[C@@H](Cc2ccccc2)C(N)=O)C(C)C)NC(=O)[C@H](Cc2c[nH]c4ccccc24)NC(=O)[C@H](CCCCN)NC(=O)[C@H](Cc2c[nH]cn2)NC(=O)[C@H]([C@@H](C)O)NC(=O)[C@H](CCCNC(=N)N)NC(=O)[C@H](CO)NC3=O)NC(=O)[C@H](CCCCN)NC(=O)[C@H](CC(=O)O)NC(=O)[C@H](CC(N)=O)NC(=O)[C@H](CC(=O)O)NC(=O)[C@@H]2CCCN2C1=O` [compound 376] (H-DCLGFMRKCIPDNDKCCRPNLVCSRTHKWCK[Bip]VF-NH2; disulfide 2-17, 9-23, 16-30): the IC50 on hNav1.5 (Table 25, IonWorks Quattro, use, […], read-out: IWQ Use Nav1.5) turned out to be 2.9 µM; on hNav1.7 (Table 25, IonWorks Quattro, use, […]) it was 0.03 µM.
